Where a name gives a salt, the structure may show the parent alone.

The compound `c1cc2c(-c3cn[nH]c3)ncnn2c1` (as salt: HCl) [Compound 13c, 4-(1H-Pyrazol-4-yl)pyrrolo[1,2-f][1,2,4]triazine] returned a melting point of 245.8 °C.

In general, melting point refers to the temperature of the solid-liquid transition.

The values are drawn from patent US20130071415A1, “Heterocyclic Compounds as Janus Kinase Inhibitors” (BioCryst Pharmaceuticals, Inc., priority 2010, published 2013).
